Measurements from ChEMBL document CHEMBL5291721, “A preclinical secondary pharmacology resource illuminates target-adverse drug reaction associations of marketed drugs” (Nat Commun, 2023).

Assays:
[1] = target: T1, 5-hydroxytryptamine receptor 2C (Homo sapiens, UniProt P28335)
T1 sequence (P28335 whole entry): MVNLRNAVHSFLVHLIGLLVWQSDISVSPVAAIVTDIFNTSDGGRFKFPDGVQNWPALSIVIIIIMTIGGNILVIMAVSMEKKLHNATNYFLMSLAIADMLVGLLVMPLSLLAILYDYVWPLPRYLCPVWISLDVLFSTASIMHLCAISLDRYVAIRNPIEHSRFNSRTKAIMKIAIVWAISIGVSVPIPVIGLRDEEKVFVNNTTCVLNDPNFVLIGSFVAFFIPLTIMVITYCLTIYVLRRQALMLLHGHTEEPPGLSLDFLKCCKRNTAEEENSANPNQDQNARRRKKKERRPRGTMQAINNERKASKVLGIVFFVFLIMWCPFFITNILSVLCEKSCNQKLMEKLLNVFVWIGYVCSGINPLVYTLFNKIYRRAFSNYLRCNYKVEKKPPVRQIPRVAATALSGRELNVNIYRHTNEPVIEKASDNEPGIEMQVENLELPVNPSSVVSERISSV

Cannabinoid receptor 1 [2] = target: T2, Cannabinoid receptor 1 (Homo sapiens, UniProt P21554); format: functional, cell-based
[3] = target: Gamma-aminobutyric acid receptor subunit alpha-1 (Rattus norvegicus, UniProt P62813); format: functional
[4] = target: Gamma-aminobutyric acid receptor subunit alpha-1/alpha-2/beta-2/gamma-2 (Homo sapiens, UniProt P14867+P18507+P47869+P47870); format: protein-complex assay
Cannabinoid receptor 1 [5] = target: T2, Cannabinoid receptor 1; format: functional, cell-based; remark: listed apart in the source
[6] = target: 5-hydroxytryptamine receptor 2B (Homo sapiens, UniProt P41595); format: functional, cell-based
Adenosine receptor A2a = Adenosine receptor A2a (Homo sapiens, UniProt P29274)
[7] = target: T3, Muscarinic acetylcholine receptor M1 (Homo sapiens, UniProt P11229); format: functional
T3 sequence (P11229 whole entry): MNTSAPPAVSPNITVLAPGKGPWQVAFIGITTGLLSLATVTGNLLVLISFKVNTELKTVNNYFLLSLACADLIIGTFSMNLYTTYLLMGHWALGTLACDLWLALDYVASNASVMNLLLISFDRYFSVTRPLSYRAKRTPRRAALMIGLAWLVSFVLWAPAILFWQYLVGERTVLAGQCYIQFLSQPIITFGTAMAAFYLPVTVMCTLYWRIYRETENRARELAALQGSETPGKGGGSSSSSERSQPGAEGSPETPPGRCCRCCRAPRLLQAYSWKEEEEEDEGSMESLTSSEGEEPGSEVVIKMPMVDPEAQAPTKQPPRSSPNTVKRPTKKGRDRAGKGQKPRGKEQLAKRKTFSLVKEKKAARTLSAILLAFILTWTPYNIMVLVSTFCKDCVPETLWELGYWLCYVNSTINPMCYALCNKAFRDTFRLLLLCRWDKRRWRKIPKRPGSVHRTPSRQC

Adenosine receptor A3 = target: T4, Adenosine receptor A3 (Homo sapiens, UniProt P0DMS8)
T4 sequence (P0DMS8 whole entry): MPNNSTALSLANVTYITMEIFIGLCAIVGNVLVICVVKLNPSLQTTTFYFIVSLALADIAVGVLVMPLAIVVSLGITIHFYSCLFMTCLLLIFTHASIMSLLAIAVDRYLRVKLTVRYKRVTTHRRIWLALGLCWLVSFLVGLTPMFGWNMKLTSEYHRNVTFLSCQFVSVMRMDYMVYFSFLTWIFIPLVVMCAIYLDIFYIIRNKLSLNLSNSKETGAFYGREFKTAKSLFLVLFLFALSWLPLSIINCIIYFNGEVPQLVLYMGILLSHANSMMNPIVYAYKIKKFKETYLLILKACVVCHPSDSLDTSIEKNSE

[8] = target: T5, 5-hydroxytryptamine receptor 3A (Homo sapiens, UniProt P46098); format: functional
T5 sequence (P46098 whole entry): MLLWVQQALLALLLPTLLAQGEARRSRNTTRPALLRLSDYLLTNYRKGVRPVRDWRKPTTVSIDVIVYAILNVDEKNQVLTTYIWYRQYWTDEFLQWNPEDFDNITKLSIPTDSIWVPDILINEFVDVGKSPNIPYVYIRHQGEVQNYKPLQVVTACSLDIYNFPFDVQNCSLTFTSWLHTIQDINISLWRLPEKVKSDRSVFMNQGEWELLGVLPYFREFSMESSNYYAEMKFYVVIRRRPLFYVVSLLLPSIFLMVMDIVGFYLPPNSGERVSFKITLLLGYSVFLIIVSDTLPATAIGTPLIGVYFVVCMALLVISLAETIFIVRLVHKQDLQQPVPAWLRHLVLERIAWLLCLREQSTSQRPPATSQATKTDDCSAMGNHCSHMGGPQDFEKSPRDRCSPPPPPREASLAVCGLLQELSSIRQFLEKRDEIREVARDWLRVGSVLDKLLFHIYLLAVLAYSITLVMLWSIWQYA

[9] = target: T6, Alpha-2C adrenergic receptor (Homo sapiens, UniProt P18825); format: functional
T6 sequence (P18825 whole entry): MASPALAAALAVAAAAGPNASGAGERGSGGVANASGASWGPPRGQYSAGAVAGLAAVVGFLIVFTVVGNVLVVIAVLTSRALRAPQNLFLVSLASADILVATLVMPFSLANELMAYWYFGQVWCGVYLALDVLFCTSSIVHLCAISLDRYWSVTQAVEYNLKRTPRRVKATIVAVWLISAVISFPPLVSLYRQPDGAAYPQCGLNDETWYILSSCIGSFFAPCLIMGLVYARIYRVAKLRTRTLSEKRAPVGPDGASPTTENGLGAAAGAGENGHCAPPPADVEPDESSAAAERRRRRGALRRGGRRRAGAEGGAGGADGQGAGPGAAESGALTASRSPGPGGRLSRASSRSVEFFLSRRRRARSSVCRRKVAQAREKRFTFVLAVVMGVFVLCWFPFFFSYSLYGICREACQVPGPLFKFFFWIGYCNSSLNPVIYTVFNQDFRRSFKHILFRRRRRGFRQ

[10] = target: Vascular endothelial growth factor receptor 2 (Homo sapiens, UniProt P35968); format: functional
Histamine H1 receptor = Histamine H1 receptor (Homo sapiens, UniProt P35367)
Note: assay procedure not described here.

Chain of Gamma-aminobutyric acid receptor subunit alpha-1/alpha-2/beta-2/gamma-2 (P14867 whole entry): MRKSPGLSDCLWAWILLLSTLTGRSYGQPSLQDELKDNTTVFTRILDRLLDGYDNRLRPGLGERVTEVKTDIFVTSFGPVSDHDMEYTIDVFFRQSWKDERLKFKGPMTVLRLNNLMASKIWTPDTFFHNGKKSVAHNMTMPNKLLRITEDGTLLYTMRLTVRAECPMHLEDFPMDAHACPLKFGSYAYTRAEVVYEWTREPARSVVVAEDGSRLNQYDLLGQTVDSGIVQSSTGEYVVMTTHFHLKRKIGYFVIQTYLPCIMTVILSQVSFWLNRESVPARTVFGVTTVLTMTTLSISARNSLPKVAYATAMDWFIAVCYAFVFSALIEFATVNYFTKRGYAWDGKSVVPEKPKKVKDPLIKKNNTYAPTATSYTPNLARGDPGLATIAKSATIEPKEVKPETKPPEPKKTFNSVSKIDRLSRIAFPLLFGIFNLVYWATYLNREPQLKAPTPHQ
Chain of Gamma-aminobutyric acid receptor subunit alpha-1/alpha-2/beta-2/gamma-2 (P47870 whole entry): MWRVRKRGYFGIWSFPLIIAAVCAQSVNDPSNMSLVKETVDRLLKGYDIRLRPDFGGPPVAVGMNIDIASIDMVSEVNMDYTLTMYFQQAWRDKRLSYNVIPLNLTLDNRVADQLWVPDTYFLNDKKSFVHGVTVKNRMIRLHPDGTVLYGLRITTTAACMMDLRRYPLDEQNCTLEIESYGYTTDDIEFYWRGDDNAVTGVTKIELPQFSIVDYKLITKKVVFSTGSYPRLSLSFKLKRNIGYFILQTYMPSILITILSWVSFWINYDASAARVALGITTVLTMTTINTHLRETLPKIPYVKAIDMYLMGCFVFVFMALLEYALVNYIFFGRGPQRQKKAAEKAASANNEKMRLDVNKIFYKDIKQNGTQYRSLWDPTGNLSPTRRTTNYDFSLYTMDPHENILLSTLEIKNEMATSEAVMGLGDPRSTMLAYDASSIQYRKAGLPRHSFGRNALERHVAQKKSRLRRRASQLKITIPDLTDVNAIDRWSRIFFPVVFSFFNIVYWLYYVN
Chain of Gamma-aminobutyric acid receptor subunit alpha-1/alpha-2/beta-2/gamma-2 (P18507 whole entry): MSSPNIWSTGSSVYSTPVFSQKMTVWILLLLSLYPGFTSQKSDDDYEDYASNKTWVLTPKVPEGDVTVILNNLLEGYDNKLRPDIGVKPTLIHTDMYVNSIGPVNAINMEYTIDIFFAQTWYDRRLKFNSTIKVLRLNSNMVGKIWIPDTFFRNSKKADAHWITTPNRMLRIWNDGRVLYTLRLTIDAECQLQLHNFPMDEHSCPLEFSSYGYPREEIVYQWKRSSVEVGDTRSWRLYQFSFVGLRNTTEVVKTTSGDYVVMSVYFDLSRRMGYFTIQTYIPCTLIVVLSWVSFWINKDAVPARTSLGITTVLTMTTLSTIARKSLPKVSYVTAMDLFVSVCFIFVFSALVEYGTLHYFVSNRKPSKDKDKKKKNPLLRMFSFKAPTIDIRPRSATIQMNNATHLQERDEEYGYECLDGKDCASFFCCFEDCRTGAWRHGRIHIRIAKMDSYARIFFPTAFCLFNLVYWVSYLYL
Chain of Gamma-aminobutyric acid receptor subunit alpha-1/alpha-2/beta-2/gamma-2 (P47869 whole entry): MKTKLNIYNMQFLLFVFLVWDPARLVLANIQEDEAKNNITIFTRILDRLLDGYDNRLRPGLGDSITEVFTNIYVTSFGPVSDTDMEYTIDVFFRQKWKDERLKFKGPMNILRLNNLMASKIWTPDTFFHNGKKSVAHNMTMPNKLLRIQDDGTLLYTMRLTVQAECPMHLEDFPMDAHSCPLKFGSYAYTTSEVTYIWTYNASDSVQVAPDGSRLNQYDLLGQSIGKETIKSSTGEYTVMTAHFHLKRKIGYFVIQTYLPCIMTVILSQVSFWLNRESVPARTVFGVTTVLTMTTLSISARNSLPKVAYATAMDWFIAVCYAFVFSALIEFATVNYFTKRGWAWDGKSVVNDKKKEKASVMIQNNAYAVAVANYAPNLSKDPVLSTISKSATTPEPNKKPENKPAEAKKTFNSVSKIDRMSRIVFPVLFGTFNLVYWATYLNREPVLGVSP
Chain of Vascular endothelial growth factor receptor 2 (P35968 whole entry): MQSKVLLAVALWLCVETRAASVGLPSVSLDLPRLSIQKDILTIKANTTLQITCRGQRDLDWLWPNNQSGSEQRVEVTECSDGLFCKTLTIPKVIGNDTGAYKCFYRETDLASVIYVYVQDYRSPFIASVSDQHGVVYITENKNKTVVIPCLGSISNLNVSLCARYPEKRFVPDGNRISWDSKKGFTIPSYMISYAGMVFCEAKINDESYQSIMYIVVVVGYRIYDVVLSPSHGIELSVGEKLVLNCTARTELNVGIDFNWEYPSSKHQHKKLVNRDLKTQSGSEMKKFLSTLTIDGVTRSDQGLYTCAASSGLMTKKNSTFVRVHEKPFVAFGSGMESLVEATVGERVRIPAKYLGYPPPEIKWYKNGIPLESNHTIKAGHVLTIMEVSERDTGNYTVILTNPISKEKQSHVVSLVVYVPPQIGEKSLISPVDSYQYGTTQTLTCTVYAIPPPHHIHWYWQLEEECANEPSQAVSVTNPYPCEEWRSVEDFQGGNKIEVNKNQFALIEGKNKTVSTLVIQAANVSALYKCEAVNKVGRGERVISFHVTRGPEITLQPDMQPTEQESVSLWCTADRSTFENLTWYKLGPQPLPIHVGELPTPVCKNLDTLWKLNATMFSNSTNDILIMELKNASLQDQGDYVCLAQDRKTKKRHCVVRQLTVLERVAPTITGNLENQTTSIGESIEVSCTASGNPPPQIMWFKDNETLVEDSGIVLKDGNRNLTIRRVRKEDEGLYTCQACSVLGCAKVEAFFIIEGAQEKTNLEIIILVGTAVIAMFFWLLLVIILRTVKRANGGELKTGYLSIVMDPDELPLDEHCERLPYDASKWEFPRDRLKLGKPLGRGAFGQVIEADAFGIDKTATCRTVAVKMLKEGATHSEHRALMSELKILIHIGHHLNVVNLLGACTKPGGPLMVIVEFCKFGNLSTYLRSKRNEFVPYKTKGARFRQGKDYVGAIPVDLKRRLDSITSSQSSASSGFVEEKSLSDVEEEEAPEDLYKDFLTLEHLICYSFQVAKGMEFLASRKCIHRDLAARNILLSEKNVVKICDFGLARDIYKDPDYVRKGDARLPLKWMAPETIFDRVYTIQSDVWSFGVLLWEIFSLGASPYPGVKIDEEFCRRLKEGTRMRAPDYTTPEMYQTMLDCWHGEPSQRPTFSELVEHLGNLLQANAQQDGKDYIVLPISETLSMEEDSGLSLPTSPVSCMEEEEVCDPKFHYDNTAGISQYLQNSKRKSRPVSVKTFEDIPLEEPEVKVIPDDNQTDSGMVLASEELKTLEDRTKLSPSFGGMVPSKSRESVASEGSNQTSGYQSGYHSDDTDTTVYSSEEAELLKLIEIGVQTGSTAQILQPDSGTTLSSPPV
Chain of Histamine H1 receptor (P35367 whole entry): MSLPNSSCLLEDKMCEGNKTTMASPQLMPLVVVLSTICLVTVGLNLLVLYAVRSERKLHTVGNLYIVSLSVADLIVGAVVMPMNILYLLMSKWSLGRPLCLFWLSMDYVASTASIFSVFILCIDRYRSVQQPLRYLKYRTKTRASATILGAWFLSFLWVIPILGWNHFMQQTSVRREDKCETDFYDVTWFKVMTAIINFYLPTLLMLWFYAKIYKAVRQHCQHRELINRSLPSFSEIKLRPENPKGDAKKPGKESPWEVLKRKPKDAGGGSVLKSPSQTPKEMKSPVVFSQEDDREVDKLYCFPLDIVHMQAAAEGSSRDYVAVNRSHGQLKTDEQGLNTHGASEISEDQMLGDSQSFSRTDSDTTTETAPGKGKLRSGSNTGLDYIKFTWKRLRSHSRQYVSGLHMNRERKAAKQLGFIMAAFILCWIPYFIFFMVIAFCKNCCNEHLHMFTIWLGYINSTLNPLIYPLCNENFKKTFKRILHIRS
T2 sequence (P21554 whole entry): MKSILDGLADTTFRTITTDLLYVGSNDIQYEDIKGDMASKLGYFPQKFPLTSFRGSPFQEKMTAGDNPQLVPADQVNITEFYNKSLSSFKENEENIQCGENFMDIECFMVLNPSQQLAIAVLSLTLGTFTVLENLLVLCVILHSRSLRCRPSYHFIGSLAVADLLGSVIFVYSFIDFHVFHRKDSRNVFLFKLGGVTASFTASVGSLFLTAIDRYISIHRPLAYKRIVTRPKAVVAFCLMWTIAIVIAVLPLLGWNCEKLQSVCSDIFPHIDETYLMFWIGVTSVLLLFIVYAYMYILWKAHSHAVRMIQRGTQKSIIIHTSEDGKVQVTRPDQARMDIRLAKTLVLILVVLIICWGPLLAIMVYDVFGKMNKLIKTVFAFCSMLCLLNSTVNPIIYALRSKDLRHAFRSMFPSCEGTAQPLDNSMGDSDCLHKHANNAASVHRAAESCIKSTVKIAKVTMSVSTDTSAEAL
Chain of 5-hydroxytryptamine receptor 2B (P41595 whole entry): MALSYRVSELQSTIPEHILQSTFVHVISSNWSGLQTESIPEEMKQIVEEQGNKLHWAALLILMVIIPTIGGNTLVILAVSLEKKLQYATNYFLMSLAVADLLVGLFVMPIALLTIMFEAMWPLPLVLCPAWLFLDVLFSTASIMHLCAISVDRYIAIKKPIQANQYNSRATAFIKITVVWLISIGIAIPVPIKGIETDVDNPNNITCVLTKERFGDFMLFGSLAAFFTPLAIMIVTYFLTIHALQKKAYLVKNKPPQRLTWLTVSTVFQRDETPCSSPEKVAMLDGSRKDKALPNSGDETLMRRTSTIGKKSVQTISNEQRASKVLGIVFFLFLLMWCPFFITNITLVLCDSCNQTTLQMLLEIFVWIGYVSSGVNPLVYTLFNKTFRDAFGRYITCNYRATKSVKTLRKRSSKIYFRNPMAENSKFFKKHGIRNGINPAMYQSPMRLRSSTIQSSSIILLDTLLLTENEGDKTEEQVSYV

| Structure (SMILES) | AC50 [4] | AC50 [10] | further results |
| --- | --- | --- | --- |
| O=C(Nc1ccccc1)OCC(CN1CCCCC1)OC(=O)Nc1ccccc1 (stereo not drawn) [DIPERODON] | > 30 µM | > 30 µM | AC50 [1]: > 10 µM; AC50 (Cannabinoid receptor 1 [2]): > 30 µM; AC50 [3]: > 10 µM; AC50 (Cannabinoid receptor 1 [5]): > 30 µM; AC50 [6]: 15 µM; AC50 (Adenosine receptor A2a): > 30 µM; AC50 [7]: > 10 µM; AC50 (Adenosine receptor A3): > 30 µM; AC50 [8]: > 10 µM; AC50 [9]: > 10 µM; AC50 (Histamine H1 receptor): > 10 µM |
| C[C@@H]1C[C@H]2[C@@H]3CCC4=CC(=O)C=C[C@]4(C)[C@@]3(F)[C@@H](O)C[C@]2(C)[C@H]1C(=O)CO [DESOXIMETASONE] | > 30 µM | > 30 µM |  |
| Oc1cccc2cccnc12 [OXYQUINOLINE] | > 30 µM | > 30 µM |  |
| C[C@@H]1C[C@H]2[C@@H]3C[C@H](F)C4=CC(=O)C=C[C@]4(C)[C@@]3(F)[C@@H](O)C[C@]2(C)[C@@]1(O)C(=O)COC(=O)C(C)(C)C [FLUMETHASONE PIVALATE] | > 30 µM | > 30 µM |  |
| O=C(O)c1cccc(-c2noc(-c3ccccc3F)n2)c1 | > 30 µM | > 30 µM | AC50 (Adenosine receptor A2a): > 30 µM; AC50 [7]: > 10 µM; AC50 (Adenosine receptor A3): > 30 µM; AC50 [9]: > 10 µM; AC50 (Histamine H1 receptor): > 10 µM |
| CC/C=C\C/C=C\C/C=C\C/C=C\C/C=C\CCCC(=O)O [ICOSAPENT] | > 30 µM | > 30 µM |  |
| CCO[C@@H](Cc1ccc(OCCn2c(C)ccc2-c2ccc(SC)cc2)cc1)C(=O)O [SAROGLITAZAR] | > 3 µM | > 30 µM |  |
| Oc1c(I)cc(I)c2cccnc12 [IODOQUINOL] | > 30 µM | > 30 µM |  |
| CN(Cc1cc(Br)cc(Br)c1N)C1CCCCC1 [BROMHEXINE] | > 30 µM | > 30 µM |  |
| CCN(CC)CCNc1ccc(C)c2sc3ccccc3c(=O)c12 [LUCANTHONE] | > 30 µM | > 30 µM |  |
| COc1ccc(-c2cc(=O)c3c(O)cc(O[C@@H]4O[C@H](CO[C@@H]5O[C@@H](C)[C@H](O)[C@@H](O)[C@H]5O)[C@@H](O)[C@H](O)[C@H]4O)cc3o2)cc1O [DIOSMIN] | > 30 µM | > 30 µM |  |
| Cc1c(O)cccc1C(=O)N[C@@H](CSc1ccccc1)[C@H](O)CN1C[C@H]2CCCC[C@H]2C[C@H]1C(=O)NC(C)(C)C | > 30 µM | > 30 µM |  |
| C[C@@H]1O[C@@H](OC[C@H]2O[C@@H](Oc3c(-c4ccc(OCCO)c(OCCO)c4)oc4cc(OCCO)cc(O)c4c3=O)[C@H](O)[C@@H](O)[C@@H]2O)[C@H](O)[C@H](O)[C@H]1O [TROXERUTIN] | > 30 µM | > 30 µM |  |
| CC[C@@H]1/C=C(\C)C[C@H](C)C[C@H](OC)[C@H]2O[C@@](O)(C(=O)C(=O)N3CCCC[C@H]3C(=O)O[C@H](/C(C)=C/[C@@H]3CC[C@H](Cl)[C@H](OC)C3)[C@H](C)[C@@H](O)CC1=O)[C@H](C)C[C@@H]2OC [PIMECROLIMUS] | > 10 µM | > 30 µM |  |
| CS(=O)(=O)Nc1cc2occ(NC=O)c(=O)c2cc1Oc1ccccc1 [IGURATIMOD] | > 30 µM | > 10 µM | AC50 [6]: > 30 µM; AC50 [7]: > 30 µM; AC50 (Adenosine receptor A3): > 30 µM; AC50 [9]: > 30 µM; AC50 (Histamine H1 receptor): > 30 µM |
| CC(=O)OC(C)C[N+](C)(C)C (stereo not drawn) [METHACHOLINE] | > 30 µM | > 30 µM |  |
